In patent publication US20230085307A1, “PYRIDAZINONE COMPOUND AND HERBICIDE” (NISSAN CHEMICAL CORPORATION, priority 2019, published 2023):

How the values were obtained:
oval-leafed pondweed [1] = assay: Test Example 1: herbicidal activity, application before weed generation under submerged conditions (Table 16, symbol C); format: in vivo, oval-leafed pondweed (Monochoria vaginalis); details: 320 g/ha applied herbicide
In short: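 Alluvial soil was flooded to 4 cm depth, weed seeds were sown mixed and 2.5-leaf rice seedlings were transplanted. On sowing day, the compound's emulsion, diluted in water to a set dose, was applied to the water surface. Plants grew at 25–30 °C and were scored 0–5 after three weeks.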

late watergrass = assay: Test Example 2: herbicidal activity, application during weed generation under submerged conditions (Table 17, symbol A); format: in vivo, late watergrass (Echinochloa oryzicola); details: AAH 320 g/ha; application during weed generation, submerged conditions
In short: (§1)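 Alluvial soil in Wagner pots was flooded to 4 cm depth and sown with the three weeds together; pots were kept in a greenhouse at 25° C. to 30° C. At the one to two leaf stage, an emulsion formulation diluted in water to a set rate went onto the water surface; scored three weeks later.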

oval-leafed pondweed [2] = assay: Test Example 2: herbicidal activity, application during weed generation under submerged conditions (Table 17, symbol C); format: in vivo, oval-leafed pondweed (Monochoria vaginalis); details: AAH 320 g/ha; application during weed generation, submerged conditions
In short: as §1

rice flat sedge = assay: Test Example 3: herbicidal effect by foliage application, Wagner pot (Table 18, symbol E); format: in vivo, rice flat sedge (Cyperus iria); details: 320 g/ha
In short: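 Plants were sown in alluvial soil held under 0.1–0.5 cm standing water and grown 14 days in a greenhouse at 25–30 °C. An emulsifiable formulation, water-diluted to the set dose, was then sprayed onto the foliage, and effects were scored three weeks later using previously defined criteria.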

green foxtail [3] = assay: Test Example 4: herbicidal effect by soil treatment (Table 19, symbol G); format: in vivo, green foxtail (Setaria viridis); details: AAH 320 g/ha
In short: (§2)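 In this soil treatment, the formulated compound reached the seeds only through the soil: seeds were buried about 1.5 cm deep in sterilized diluvial soil, then the diluted emulsion was sprayed over the surface. After three weeks at 25° C. to 30° C. in a greenhouse, effects were graded on criteria from an earlier test.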

wild oat = assay: Test Example 4: herbicidal effect by soil treatment (Table 19, symbol I); format: in vivo, wild oat (Avena fatua); details: AAH 320 g/ha
In short: as §2

blackgrass [4] = assay: Test Example 4: herbicidal effect by soil treatment (Table 19, symbol J); format: in vivo, blackgrass (Alopecurus myosuroides); details: AAH 320 g/ha
In short: as §2

Italian ryegrass = assay: Test Example 4: herbicidal effect by soil treatment (Table 19, symbol K); format: in vivo, Italian ryegrass (Lolium multiflorum); details: AAH 320 g/ha
In short: as §2

redroot pigweed [5] = assay: Test Example 4: herbicidal effect by soil treatment (Table 19, symbol N); format: in vivo, redroot pigweed (Amaranthus retroflexus); details: AAH 320 g/ha
In short: as §2

chickweed [6] = assay: Test Example 4: herbicidal effect by soil treatment (Table 19, symbol P); format: in vivo, common chickweed (Stellaria media); details: AAH 320 g/ha
In short: as §2

persian speedwell = assay: Test Example 4: herbicidal effect by soil treatment (Table 19, symbol R); format: in vivo, Persian speedwell (Veronica persica); details: AAH 320 g/ha
In short: as §2

green foxtail [7] = assay: Test Example 5: herbicidal effect by foliage application, plastic box (Table 20, symbol G); format: in vivo, green foxtail (Setaria viridis); details: foliage application, AAH 320 g/ha, three weeks after application
In short: (§3)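 Plants were sown into sterilized diluvial soil under about 1.5 cm cover and kept in a greenhouse at 25° C. to 30° C. Fourteen days on, foliage received an even spray of the diluted emulsion. Herbicidal or crop effect was judged three weeks afterwards.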

barnyard grass = assay: Test Example 5: herbicidal effect by foliage application, plastic box (Table 20, symbol H); format: in vivo, barnyard grass (Echinochloa crus-galli); details: foliage application, AAH 320 g/ha, three weeks after application
In short: as §3

blackgrass [8] = assay: Test Example 5: herbicidal effect by foliage application, plastic box (Table 20, symbol J); format: in vivo, blackgrass (Alopecurus myosuroides); details: foliage application, AAH 320 g/ha, three weeks after application
In short: as §3

redroot pigweed [9] = assay: Test Example 5: herbicidal effect by foliage application, plastic box (Table 20, symbol N); format: in vivo, redroot pigweed (Amaranthus retroflexus); details: foliage application, AAH 320 g/ha, three weeks after application
In short: as §3

chickweed [10] = assay: Test Example 5: herbicidal effect by foliage application, plastic box (Table 20, symbol P); format: in vivo, common chickweed (Stellaria media); details: foliage application, AAH 320 g/ha, three weeks after application
In short: as §3

| SMILES | Herbicidal effect on C: oval-leafed pondweed (grade 0-5) (oval-leafed pondweed [1]) | herbicidal effect rating, A: late watergrass (late watergrass) | herbicidal effect rating, C: oval-leafed pondweed (oval-leafed pondweed [2]) | herbicidal effect on E (rice flat sedge), rating 0-5 (rice flat sedge) | G: green foxtail, herbicidal effect rating (green foxtail [3]) | I: wild oat, herbicidal effect rating (wild oat) | J: blackgrass, herbicidal effect rating (blackgrass [4]) | K: Italian ryegrass, herbicidal effect rating (Italian ryegrass) | N: redroot pigweed, herbicidal effect rating (redroot pigweed [5]) | P: chickweed, herbicidal effect rating (chickweed [6]) | R: persian speedwell, herbicidal effect rating (persian speedwell) | G: green foxtail, herbicidal effect (green foxtail [7]) | H: barnyard grass, herbicidal effect (barnyard grass) | J: blackgrass, herbicidal effect (blackgrass [8]) | N: redroot pigweed, herbicidal effect (redroot pigweed [9]) | P: chickweed, herbicidal effect (chickweed [10]) |
| --- | --- | --- | --- | --- | --- | --- | --- | --- | --- | --- | --- | --- | --- | --- | --- | --- |
| CCCC(=O)Oc1c(C)nn(C)c(=O)c1-c1c(-c2ccc(C(F)(F)F)cc2)sc2ccccc12 [1-130] | 3 (Herbicidal rate of 40% or more and less than 70%) | 2 (Herbicidal rate of 20% or more and less than 40%) | 0 (Herbicidal rate of 5% or less (almost no effect)) | 5 (Herbicidal rate of 90% or more (almost completely withered)) | 3 (Herbicidal rate of 40% or more and less than 70%) | 0 (Herbicidal rate of 5% or less (almost no effect)) | 0 (Herbicidal rate of 5% or less (almost no effect)) | 4 (Herbicidal rate of 70% or more and less than 90%) | 3 (Herbicidal rate of 40% or more and less than 70%) | 3 (Herbicidal rate of 40% or more and less than 70%) | 3 (Herbicidal rate of 40% or more and less than 70%) | 0 (Herbicidal rate of 5% or less (almost no effect)) | 0 (Herbicidal rate of 5% or less (almost no effect)) | 0 (Herbicidal rate of 5% or less (almost no effect)) | 4 (Herbicidal rate of 70% or more and less than 90%) | 5 (Herbicidal rate of 90% or more (almost completely withered)) |
| C#CCOc1ccc(-c2sc3ccccc3c2-c2c(O)c(C)nn(C)c2=O)cc1 [1-136] | 0 (Herbicidal rate of 5% or less (almost no effect)) | 0 (Herbicidal rate of 5% or less (almost no effect)) | 0 (Herbicidal rate of 5% or less (almost no effect)) | 5 (Herbicidal rate of 90% or more (almost completely withered)) | 4 (Herbicidal rate of 70% or more and less than 90%) | 0 (Herbicidal rate of 5% or less (almost no effect)) | 0 (Herbicidal rate of 5% or less (almost no effect)) | 5 (Herbicidal rate of 90% or more (almost completely withered)) | 4 (Herbicidal rate of 70% or more and less than 90%) | 1 (Herbicidal rate of 5% or more and less than 20%) | 4 (Herbicidal rate of 70% or more and less than 90%) | 5 (Herbicidal rate of 90% or more (almost completely withered)) | 4 (Herbicidal rate of 70% or more and less than 90%) | 1 (Herbicidal rate of 5% or more and less than 20%) | 4 (Herbicidal rate of 70% or more and less than 90%) | 5 (Herbicidal rate of 90% or more (almost completely withered)) |
| Cc1nn(C)c(=O)c(-c2c(-c3ccc(OCC(F)(F)F)cc3)sc3ccccc23)c1O [1-140] | 0 (Herbicidal rate of 5% or less (almost no effect)) | 3 (Herbicidal rate of 40% or more and less than 70%) | 0 (Herbicidal rate of 5% or less (almost no effect)) | 5 (Herbicidal rate of 90% or more (almost completely withered)) | 5 (Herbicidal rate of 90% or more (almost completely withered)) | 0 (Herbicidal rate of 5% or less (almost no effect)) | 0 (Herbicidal rate of 5% or less (almost no effect)) | 5 (Herbicidal rate of 90% or more (almost completely withered)) | 5 (Herbicidal rate of 90% or more (almost completely withered)) | 4 (Herbicidal rate of 70% or more and less than 90%) | 5 (Herbicidal rate of 90% or more (almost completely withered)) | 5 (Herbicidal rate of 90% or more (almost completely withered)) | 5 (Herbicidal rate of 90% or more (almost completely withered)) | 4 (Herbicidal rate of 70% or more and less than 90%) | 4 (Herbicidal rate of 70% or more and less than 90%) | 5 (Herbicidal rate of 90% or more (almost completely withered)) |
| Cc1nn(C)c(=O)c(-c2c(-c3ccc([N+](=O)[O-])cc3)sc3ccccc23)c1O [1-151] | 3 (Herbicidal rate of 40% or more and less than 70%) | 0 (Herbicidal rate of 5% or less (almost no effect)) | 0 (Herbicidal rate of 5% or less (almost no effect)) | 5 (Herbicidal rate of 90% or more (almost completely withered)) | 0 (Herbicidal rate of 5% or less (almost no effect)) | 0 (Herbicidal rate of 5% or less (almost no effect)) | 0 (Herbicidal rate of 5% or less (almost no effect)) | 3 (Herbicidal rate of 40% or more and less than 70%) | 3 (Herbicidal rate of 40% or more and less than 70%) | 0 (Herbicidal rate of 5% or less (almost no effect)) | 5 (Herbicidal rate of 90% or more (almost completely withered)) | 3 (Herbicidal rate of 40% or more and less than 70%) | 3 (Herbicidal rate of 40% or more and less than 70%) | 0 (Herbicidal rate of 5% or less (almost no effect)) | 5 (Herbicidal rate of 90% or more (almost completely withered)) | 5 (Herbicidal rate of 90% or more (almost completely withered)) |
